One substance from paper PMC10976043, “Function and Mechanism of Antiviral Wasp Venom Peptide Protopolybia-MP III and Its Derivatives against HSV-1” (Toxins, 2024) can be followed below.

Where two headings read alike, the source gives them in different places. Ends that are not written are not given here.

One data set has as its system HSV-1 ICP0. It counts as cell-based, herpes simplex virus type 1. As to conditions: for effect on intracellular HSV-1 ICP0 expression level: HSV-1 MOI 1, 24 h, Western blotting; for inhibition rate on intracellular HSV-1 ICP0 expression level: ICP0, 24 h. As to the method:
(A) Amino acid sequence of Protopolybia-MP III. Basic residues are labeled blue, and acidic residues are labeled red. (B,C) Suppression of intracellular HSV-1 infection by Protopolybia-MP III. Cells were preincubated with Protopolybia-MP III at different concentrations or PBS for 1 h and then infected with HSV-1 at a multiplicity of infection (MOI) of 1. After 24 h, the cells were collected. Intracellular HSV-1 RNA was analyzed by qPCR (B), and intracellular HSV-1 ICP0 protein levels were analyzed by Western blotting (C). (D) Suppression of Protopolybia-MP III on extracellular HSV-1 particles. Cells were treated with Protopolybia-MP III at different concentrations or PBS for 24 h, and then the supernatant was collected and evaluated in a plaque formation assay. (E) Cytotoxicity of Protopolybia-MP III to Vero cells. Cells were treated with Protopolybia-MP III or PBS at different concentrations for 24 h, and then the cytotoxicity was determined by CCK8 assay. * p < 0.05. ** p < 0.01. *** p < 0.001.
(§1) Figure 2 Protopolybia-MP III inhibits HSV-1 replication in human cell lines. (A) Cytotoxicities of Protopolybia-MP III to A549 cells, HCEC, and SK-N-MC. Cells were treated with Protopolybia-MP III at different concentrations or PBS for 24 h, and then cytotoxicities were determined by the CCK8 assay. (B,C) Suppression of intracellular HSV-1 infection by Protopolybia-MP III in A549 cells, HCEC, and SK-N-MC. Cells were preincubated with Protopolybia-MP III at different concentrations or PBS for 1 h and then infected with HSV-1 at an MOI of 1. After 24 h, the cells were collected. Intracellular HSV-1 RNA was analyzed by qPCR (B), and intracellular HSV-1 ICP0 protein expression levels were analyzed by Western blotting (C). (D) Inhibition of Protopolybia-MP III on extracellular HSV-1 particles in A549 cells, HCEC, and SK-N-MC. Cells were treated with Protopolybia-MP III at different concentrations or PBS for 24 h, and then the supernatant was collected and evaluated in a plaque formation assay. * p < 0.05. ** p < 0.01. *** p < 0.001.
Figure 7 Antiviral activity analysis of Protopolybia-MP III mutants. (A) Amino acid sequences of Protopolybia-MP III mutants. Identical amino acids among Protopolybia-MP I, Protopolybia-MP III, and its mutants are marked in blue, and different amino acids are marked in red. (B) Suppression of Protopolybia-MP I, Protopolybia-MP III, and its mutants on intracellular HSV-1 content. Cells were preincubated with 20 μg/mL peptides or PBS for 1 h and then infected with HSV-1 at an MOI of 1. After 24 h, the cells were collected. Intracellular HSV-1 ICP0 protein levels were analyzed by Western blotting. The ratios of HSV-1 ICP0 to GAPDH were calculated by ImageJ software. (C) Inhibition of HSV-1 free virion infectivity by Protopolybia-MP I, Protopolybia-MP III, and its mutants. HSV-1 (MOI = 1) and 5 μg/mL peptides or PBS were coincubated at 37 °C for 1 h, and the mixtures were then used to infect Vero cells. After 24 h, cells were collected, and intracellular HSV-1 RNA was analyzed by qPCR. ns, no significance. * p < 0.05. ** p < 0.01. *** p < 0.001.
HSV-1 was kindly provided by Professor Zhijian Cao of Wuhan University. Cells were infected with HSV-1 at an MOI of 1 for 24 h. Then, cells were collected for qPCR, Western blotting, and immunofluorescence assays, and the extracellular supernatant was used for plaque formation assays.
Cells were collected and lysed in 1% SDS. The cell lysate was heated at 100 °C for 20 min and centrifuged at 12,000 rpm at 4 °C for 15 min, and then the supernatant was collected and assayed with a BCA Protein Quantification Kit (Vazyme). Equal amounts of protein were separated using a PAGE Gel Fast Preparation Kit (10%) (Epizyme Biotech, Wuhan, China) and transferred to nitrocellulose (NC) membranes (Millipore, Wuhan, China). […]

In data set [1] the test system is human neuroepithelial cells (SK-N-MC). The data set can be described thus: CCK8 cytotoxicity assay, SK-N-MC. It counts as cell-based. The following applies: 40 μg/mL, 24 h. As to the method:
as §1
Cells were seeded in a 96-well plate (7000–10,000 cells per well) and cultured at 37 °C overnight. Peptides in a series of concentrations were added to the medium, and cells were then incubated at 37 °C for 24 h. […] Finally, the absorbance was measured at 450 nm using a microplate reader (BioTek, Winooski, VT, USA).
For orientation: Tetrazolium dyes change colour on reduction, which living cells bring about.

Turning to “INWLKLGKAVIDAL-NH2 [Protopolybia-MP III]”, the “effect on intracellular HSV-1 ICP0 expression level” value with HSV-1 ICP0 (A549 cells), in the data set on HSV-1 ICP0 (HCEC) and in the data set on HSV-1 ICP0 (SK-N-MC) was “strongly inhibited” each time. Also, the “inhibition rate on intracellular HSV-1 ICP0 expression level” value came to 67% in the data set on HSV-1 ICP0 (5 μg/mL), 74% in the data set with HSV-1 ICP0 (10 μg/mL) and 96% in the data set on HSV-1 ICP0 (20 μg/mL). Also, the “cytotoxicity to SK-N-MC” value in data set [1] is given as “almost nontoxic”.
